The results in this text go back to article PMC2358886, “Evolution of pharmacologic specificity in the pregnane X receptor” (BMC Evolutionary Biology, 2008).

The subject of one data set is Ciona VDR/PXR. Kind of data set: Activation of Ciona VDR/PXR (LBD/GAL4 chimeric receptor) luciferase reporter assay. Format: cell-based, Ciona intestinalis. Conditions: screening; reference maximal activator 20 μM 6-formylindolo-[3,2-b]carbazole. An excerpt: The LBD of Ciona VDR/PXR was cloned from cDNA fragments generously provided by Professors Yuji Kohara and Norituki Satoh, and then inserted into the PM2-GAL4 plasmid to create an LBD/GAL4 chimeric receptor.
The LBD of Xenopus tropicalis (Western clawed frog) PXR (xtPXR) was cloned by PCR from RNA extracted from ovary of an adult female frog. Ciona VDR/PXR was cloned from cDNA fragments ciem829d05 and cilv048e18 provided by Professor Yuji Kohara (Center for Genetic Resource Information, National Institute of Genetics, Research Organization of Information and Systems, Mishima, Japan) and Professor Noriyuki Satoh (Kyoto University, Kyoto, Japan), with analysis of the cDNA clones supported by Grant-in-aid for Scientific Research on Priority Area "Genome" of Ministry of Education, Culture, Sports, Science and Technology, Japan.
The creation of a HepG2 (human liver) cell line stably expressing the human Na^+-taurocholate cotransporter (NTCP) has been previously reported. HepG2-NTCP cells were grown in modified Eagle's medium-α containing 10% fetal bovine serum and 1% penicillin/streptomycin (Invitrogen, Carlsbad, CA, USA). Plasmids containing cDNAs for 8 PXRs from 7 species (human, mouse, rat, rabbit, chicken [also called chicken X receptor, CXR], African clawed frog [also termed Xenopus laevis benzoate X receptors α and β, BXRα and BXRβ ], zebrafish), as well as the reporter constructs tk-UAS-Luc and CYP3A4-PXRE-Luc, and 'empty' vectors pCDNA, PsG5, and PM2 were generously provided by SA Kliewer, JT Moore, and LB Moore (GlaxoSmithKline, Research Triangle Park, NC, USA). […] For the full-length expression vectors, the reporter plasmid was CYP3A4-PXRE-Luc, a construct that contains a promoter element from CYP3A4 (recognized by PXR DBDs) driving luciferase expression. For the GAL4/LBD expression constructs, the reporter plasmid was tk-UAS-Luc, which contains GAL4 DNA binding elements driving luciferase expression. The following transfection ratios of reporter, receptor, and β-galactosidase plasmids were used (ng/well): human, mouse, rabbit, and rat PXRs – 25/2.7/20; chicken PXR – 10/1/20; Xenopus tropicalis PXR, zebrafish PXR, and Ciona VDR/PXR – 75/50/20.
The PXR activation assay was a luciferase-based reporter assay. On day 1, 30,000 cells/well were seeded onto 96-well white opaque plates (Corning-Costar, Corning, NY, USA). On day 2, cells were transfected using the calcium phosphate precipitation method with expression vector or 'empty' control vector and luciferase reporter plasmid. On day 3, the cells were washed and then incubated with medium containing charcoal-dextran treated fetal bovine serum (Hyclone, Logan, UT, USA) and drugs or vehicle. On day 4, the cells were washed and the medium replaced with serum-free medium. […]

Data set [1] has as its target T1, human PXR (Homo sapiens, UniProt O75469).
T1 sequence (O75469 1-434): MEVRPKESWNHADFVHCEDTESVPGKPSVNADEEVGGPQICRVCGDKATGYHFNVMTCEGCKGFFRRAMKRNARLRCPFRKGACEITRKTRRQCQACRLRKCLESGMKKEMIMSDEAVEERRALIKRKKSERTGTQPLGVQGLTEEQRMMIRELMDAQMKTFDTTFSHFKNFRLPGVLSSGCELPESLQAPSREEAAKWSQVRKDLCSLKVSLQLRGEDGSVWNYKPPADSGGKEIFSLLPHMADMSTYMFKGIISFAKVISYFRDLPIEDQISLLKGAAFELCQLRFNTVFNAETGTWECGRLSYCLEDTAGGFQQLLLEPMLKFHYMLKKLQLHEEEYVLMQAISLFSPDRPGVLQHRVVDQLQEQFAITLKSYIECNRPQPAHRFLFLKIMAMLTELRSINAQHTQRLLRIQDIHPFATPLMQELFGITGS

The target in data set [2] is T2, zebrafish PXR (Danio rerio, UniProt A5WYG8).
T2 sequence (A5WYG8 144-430): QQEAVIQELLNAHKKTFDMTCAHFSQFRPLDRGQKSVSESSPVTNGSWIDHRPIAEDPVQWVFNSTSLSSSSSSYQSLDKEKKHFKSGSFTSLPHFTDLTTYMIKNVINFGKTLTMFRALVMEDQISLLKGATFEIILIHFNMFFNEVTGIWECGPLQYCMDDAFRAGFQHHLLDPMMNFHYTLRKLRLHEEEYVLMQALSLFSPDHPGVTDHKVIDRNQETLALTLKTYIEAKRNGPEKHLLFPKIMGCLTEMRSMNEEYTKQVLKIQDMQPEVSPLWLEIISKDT

The test system of data set [3] is HepG2 cells.
Data set [4] addresses T3, mouse PXR (Mus musculus, UniProt O54915).
T3 sequence (O54915 1-431): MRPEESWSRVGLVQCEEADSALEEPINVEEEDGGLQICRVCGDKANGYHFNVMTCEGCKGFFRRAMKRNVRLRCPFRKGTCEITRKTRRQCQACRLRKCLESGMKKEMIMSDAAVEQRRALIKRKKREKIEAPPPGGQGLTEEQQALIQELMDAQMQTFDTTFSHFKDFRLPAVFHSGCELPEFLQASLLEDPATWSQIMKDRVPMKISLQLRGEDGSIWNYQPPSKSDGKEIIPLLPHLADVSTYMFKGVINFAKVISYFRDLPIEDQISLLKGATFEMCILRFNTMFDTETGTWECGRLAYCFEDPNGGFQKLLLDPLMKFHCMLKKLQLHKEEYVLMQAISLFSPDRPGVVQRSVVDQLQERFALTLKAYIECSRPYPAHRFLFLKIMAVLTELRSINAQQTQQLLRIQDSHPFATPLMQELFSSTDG

Data set [5] concerns the target T4, rat PXR (Rattus norvegicus, UniProt Q9R1A7).
T4 sequence (Q9R1A7 1-431): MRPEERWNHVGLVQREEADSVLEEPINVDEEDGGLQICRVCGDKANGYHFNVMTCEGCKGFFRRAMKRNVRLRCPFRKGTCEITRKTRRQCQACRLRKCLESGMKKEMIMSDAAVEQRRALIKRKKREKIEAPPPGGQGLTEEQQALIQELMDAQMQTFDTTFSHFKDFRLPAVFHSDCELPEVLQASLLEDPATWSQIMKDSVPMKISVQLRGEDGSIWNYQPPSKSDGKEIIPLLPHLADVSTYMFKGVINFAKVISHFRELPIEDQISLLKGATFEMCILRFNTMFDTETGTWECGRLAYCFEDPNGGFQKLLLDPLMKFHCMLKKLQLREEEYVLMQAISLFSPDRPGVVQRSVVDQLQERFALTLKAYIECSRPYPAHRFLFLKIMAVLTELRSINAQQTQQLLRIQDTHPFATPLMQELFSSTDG
The conditions noted are these: relative to 20 μM pregnenolone 16α-carbonitrile, assigned an efficacy of 1.0.

Data set [6] has as its target T5, chicken PXR (Gallus gallus, UniProt Q9DFH3).
T5 sequence (Q9DFH3 1-391): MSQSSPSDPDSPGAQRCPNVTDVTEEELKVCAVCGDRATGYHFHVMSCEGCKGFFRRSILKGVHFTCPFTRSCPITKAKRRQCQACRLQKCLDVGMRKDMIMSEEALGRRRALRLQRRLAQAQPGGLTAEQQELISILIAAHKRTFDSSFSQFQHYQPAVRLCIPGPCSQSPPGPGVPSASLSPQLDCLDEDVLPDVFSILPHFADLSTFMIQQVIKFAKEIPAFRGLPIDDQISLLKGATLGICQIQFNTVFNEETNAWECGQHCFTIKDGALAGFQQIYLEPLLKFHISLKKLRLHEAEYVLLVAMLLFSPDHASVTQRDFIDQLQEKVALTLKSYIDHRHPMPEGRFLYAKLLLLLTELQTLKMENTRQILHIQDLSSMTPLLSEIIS

Data set [7] deals with T2, zebrafish PXR. Kind of data set: cell-based.
In data set [8] the target is T3, mouse PXR. Kind of data set: cell-based.
Data set [9] concerns the target T4, rat PXR. Briefly: cell-based.
For data set [10], the target named is T5, chicken PXR. Kind of data set: cell-based.
Another data set addresses T6, rabbit PXR (Oryctolagus cuniculus, UniProt Q9TU02).
T6 sequence (Q9TU02 1-411): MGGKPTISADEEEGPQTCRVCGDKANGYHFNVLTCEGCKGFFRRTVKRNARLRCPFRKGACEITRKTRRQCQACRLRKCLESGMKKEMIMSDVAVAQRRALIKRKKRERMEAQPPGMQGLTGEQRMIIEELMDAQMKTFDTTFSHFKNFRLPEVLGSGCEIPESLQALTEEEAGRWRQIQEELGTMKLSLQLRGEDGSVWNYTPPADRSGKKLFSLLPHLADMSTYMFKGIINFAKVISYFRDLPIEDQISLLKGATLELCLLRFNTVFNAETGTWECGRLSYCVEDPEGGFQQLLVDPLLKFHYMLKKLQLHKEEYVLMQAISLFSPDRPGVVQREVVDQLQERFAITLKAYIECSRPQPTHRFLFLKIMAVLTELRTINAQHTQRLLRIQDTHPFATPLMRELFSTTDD
Kind of data set: PXR activation luciferase reporter assay, rabbit PXR.

The target of data set [11] is T1, human PXR. Briefly: PXR activation luciferase reporter assay, human PXR in HepG2-NTCP cells.
Data set [12] has as its system HepG2 cells. Kind of data set: Toxicity assays in HepG2 cells (MTT and alamar blue reduction). The conditions noted are these: lowest concentration that produced significant toxicity in the HepG2 cells.
Where [13] appears, read: relative to 20 μM pregnenolone 16α-carbonitrile, assigned an efficacy of 1.0.
The mark [14] stands for this setting: hPXR Activity, -log(EC50), EC50 in molar units, activation of human PXR.

“Also recorded” adds a separate entry of the source. Read-outs that look alike come from different tables or passages of the source.

As to 6-formylindolo-[3,2-b]carbazole, the “Activation of Ciona VDR/PXR (in words)” value in the data set on Ciona VDR/PXR is “low micromolar range; also recorded: robustly activated”.

As to `CC(CCCC(CO)COS(=O)(=O)O)[C@H]1CCC2C3C(C[C@H](O)[C@@]21C)[C@@]1(C)CC[C@@H](O)C[C@@H]1C[C@H]3O` (stereo partly drawn) [BI036, 5β-Cholestan-3α,7α,12α,26-tetrol-27-sulfate], the “Activation of human PXR (in words)” value on human PXR [1] is given as “activated”. For the same compound, the “Activation of zebrafish PXR (in words)” value on zebrafish PXR [2] (bile salts) is given as “activated”. Moreover, the “zfPXR Efficacy” value on zebrafish PXR [2] (zebrafish) stood at 0.75. Moreover, the Toxicity entry with HepG2 cells [3] is reported as “None”. Besides, the “Mouse PXR efficacy, ε” value on mouse PXR [4] (setting [13]) worked out at 0.29. The “Rat PXR efficacy, ε” value on rat PXR [5] was 0.28. Besides, the “Chicken PXR efficacy, ε” value on chicken PXR [6] (chicken) is 0.61. Moreover, the EC50 on zebrafish PXR [7] was 43.7 µM; at mouse PXR [8], 16.6 µM; at rat PXR [9], 31.6 µM; on chicken PXR [10], 30.9 µM; on rabbit PXR it was 81.3 µM; at human PXR [11] (setting [14]), 25.7 µM. In addition, the “Rabbit PXR efficacy, ε” value at rabbit PXR (relative to 50 μM 5α-pregnan-3,20-dione, assigned an efficacy of 1.0) stood at 0.43.

As for `NC(=O)N1c2ccccc2C=Cc2ccccc21` [MI7, Carbamazepine], the “Activation of Ciona VDR/PXR (in words)” value with Ciona VDR/PXR is reported as “micromolar range; also recorded: Weaker activation”. The “zfPXR Activity” value at zebrafish PXR [2] is recorded as “None”. For the same compound, the Toxicity in the data set on HepG2 cells [3] (human, 24 hr) turned out to be 200 µM. Also, the EC50 at human PXR [11] (setting [14]) is 63.1 µM.

As to `Clc1cc2c(cc1Cl)Oc1cc(Cl)c(Cl)cc1O2` [MI34, 2,3,7,8-tetrachlorodibenzo-p-dioxin], at zebrafish PXR [2] (relative to 20 μM 5α-androstan-3α-ol, assigned an efficacy of 1.0), the “zfPXR Efficacy” value was found to be 6.17. For the same compound, on mouse PXR [4] (setting [13]), the “Mouse PXR efficacy, ε” value turned out to be 1.60. The “Rat PXR efficacy, ε” value on rat PXR [5] was found to be 0.83. Further, on chicken PXR [6] (relative to 20 μM nifedipine, assigned an efficacy of 1.0), the “Chicken PXR efficacy, ε” value is reported as 0.06. For the same compound, the EC50 on zebrafish PXR [7] (zfPXR Activity, -log(EC50), EC50 in molar units, activation of zebrafish PXR) was 0.479 µM; on mouse PXR [8] it was 0.1 µM; at rat PXR [9], 0.2 µM; at chicken PXR [10], 0.0912 µM; at human PXR [11] it was 0.0676 µM. The “Activation of rabbit PXR (in words)” value at rabbit PXR is “inactive”. Further, the “Rabbit PXR Activity” value at rabbit PXR (-log(EC50), EC50 in molar units) is reported as “No effect”. In the data set on HepG2 cells [12], the Toxicity came out at 10 µM. Further, the “hPXR Efficacy” value on human PXR [11] (relative to 10 μM rifampicin, assigned an efficacy of 1.0) is reported as 1.78.

Regarding `CC(=O)[C@H]1CC[C@H]2[C@@H]3CC[C@@H]4CC(=O)CC[C@]4(C)[C@H]3CC[C@]12C` [PR2, 5β-Pregnan-3,20-dione], the “hPXR Efficacy” value at human PXR [1] (human) is reported as 0.97. Further, the “zfPXR Efficacy” value on zebrafish PXR [2] (zebrafish) came to 0.85. Further, the Toxicity result with HepG2 cells [3] was “None”. Besides, the “Mouse PXR efficacy, ε” value at mouse PXR [4] (mouse) is recorded as 5.36 (ε = 0.84). Moreover, the “Chicken PXR efficacy, ε” value on chicken PXR [6] (chicken) is given as 5.59 (ε = 0.81). For the same compound, the concentration giving a half-maximal response (EC50) at zebrafish PXR [7] was 0.832 µM; at mouse PXR [8], 4.37 µM; at rat PXR [9], 5.75 µM; at chicken PXR [10] it was 2.57 µM; on rabbit PXR, 12.6 µM; at human PXR [11] (hPXR Activity), 2.57 µM.
